Experimental data reported in patent US20050187288A1, “Beta-lapachone and methods of treating cancer” (priority 2004, published 2005).
Like-named read-outs stand apart in the source and are kept apart here.

Key:
MCF-7 = conditions: human, 4 h
Procedure: (§2) Control plates received the same volume of DMSO alone. After a 4 hour exposure the drug was carefully removed, and drug-free medium could be added. […] Colonies of greater than 50 cells were scored as survivors. Cells were maintained at 37° C. in 5% CO2 in complete humidity.

[1] = Study 2A: repetitive weekly intravenous toxicity study in dogs; conditions: for decreased hemoglobin: Day 23
Text: On Day 23 of the study, 4 animals/sex/group were euthanized (barbiturate overdose) followed by exsanguination and subjected to necropsy as described below.

DU-145 = conditions: human, 4 h
Procedure: as §2

E2F-1 = E2F-1 protein expression by Western blot in Paca-2 cells; type: cell-based, human; conditions: 0.5 hours exposure
Procedure: Cells were harvested and whole cell lysates were prepared and resolved by SDS/PAGE, then Western blots were prepared using E2F-1 antibody obtained from Santa Cruz Biotechnology (Santa Cruz, Calif.) and an enhanced chemiluminescence assay system (Amersham Pharmacia).

[2] = Binding to human plasma proteins by equilibrium dialysis; type: in vitro ADME; conditions: human, pooled human plasma; 2-25 μM, 37° C.; read-out: protein binding (converted)
Procedure: (§1) The plasma aliquots were incubated at 37° C. for 1 h, and then were dialyzed against PBS buffer at 37° C. for 4 h using Dianorm Equilibrium Dialysers.

human plasma proteins = experiment: as above; type: in vitro ADME; conditions: 2-25 μM, 37° C.
Procedure: as §1

[3] = Pharmacokinetics after intravenous infusion in rats, HPBCD formulation; conditions: male, Sprague-Dawley, rat, plasma
human PBMC = experiment: MTT cytotoxicity on PBMC; type: cell-based; conditions: 0.5, 2, 4, and 8 μM for 24 h
Procedure: Proliferating PBMC were generated by 72 h incubation with phytohemagglutinin (PHA) at 2 μg/mL.

A549 lung cancer cells = experiment: cells; conditions: Homo sapiens, A549, read-out: LC50, A549 Clone B surviving >LC99
CAOV-3 [4] = experiment: cells; conditions: Homo sapiens, Caov-3, read-out: LC50 (Replicate Results), CAOV-3, 4 hour exposure, colonies after 14-21 days
Procedure: as §2

[5] = Study 1A: repetitive weekly intravenous toxicity study in rats
[6] = Study 6B: two week intravenous repetitive dose toxicity study in rats; conditions: 45 mg/kg, one animal, Day 15
[7] = Pharmacokinetic profile of intraperitoneal dosing in mice, Lipiodol formulation; conditions: IP 150 mg/m^2 in Lipiodol
Procedure: A study was performed to determine the pharmacokinetic profile of intraperitoneal (IP) dosing in mice.

[8] = Study 5B: four week intravenous toxicity study in rats; conditions: for creatine kinase elevation: Day 1
Text: Blood samples were taken for hematology and clinical chemistry (Days 1, 15 and 24) and coagulation (Day 24 only) and clinical chemistry evaluation.

[9] = Reversibility of binding to human plasma proteins; type: in vitro ADME; conditions: pooled human plasma, dialyzed three times against fresh plasma, 37° C., read-out: fraction in plasma reversibly bound to plasma proteins
Procedure: The spiked plasma was incubated at 37° C. for 1 h, and then was dialyzed three times against fresh plasma aliquots at 37° C.

G480 lung cancer cells = experiment: Colony formation assay, single agents and combination; type: cell-based
Text: Control plates received the same volume of DMSO alone. […] Treated wells were presented as percentage of control. Data were presented as an average (+SEM) from three independent experiments.

CAOV-3 [10] = conditions: human, 4 h
Procedure: as §2

SK-OV-3 = conditions: human, 4 h
Procedure: as §2

[11] = Study 4B: cardiovascular, pulmonary study in anesthetized dogs; type: in vivo
Procedure: In Study No. 4B, adult female Beagle dogs (one male in control group) were randomized into three study groups (3 animals/group) as shown in Table 17.
For measurement of cardiovascular function, a lead II ECG was obtained with subdermal needle electrodes and an ECG signal conditioner. Heart rate (HR) was measured with a pulse rate tachometer. The right femoral artery was cannulated with a catheter connected to a pressure transducer and pressure processor for recording mean, systolic and diastolic arterial blood pressure (BP). The left femoral artery was exposed by a flank incision and a probe (2.5 mm i.d.) connected to an electromagnetic flowmeter was placed around the artery for measurement of blood flow (BF). […] For measurement of pulmonary function, a 5.0 mm endotracheal tube connected to a pneumotachograph recorded integrated flow to yield a continuous recording of respiratory rate (RR). Intrapleural pressure was obtained from an esophageal balloon placed in the lower third of the esophagus. Transpulmonary pressure, the difference between thoracic (i.e. the external end of the endotracheal tube) and pleural pressure, was measured with a differential pressure transducer. Measurements of respiratory flow and transpulmonary pressure were used to compute total lung resistance (RL) and dynamic compliance (CDYN).
All parameters were measured and recorded immediately before (0 minute) and 5, 10, 30, 60, 90 and 120 minutes after start of the infusion. The mean±SEM value and the percentage relative to pretreatment values at each observation time point after dosing were calculated, and Dunnett's test was applied for comparison between vehicle control group and test substance treated group at the relative observation time interval. Differences were considered significant at p<0.05 level.

[12] = 4 μM for 4 hours, vs carrier alone
[13] = 40 mg/kg, by the end of the infusion

CC1(C)CCC2=C(O1)c1ccccc1C(=O)C2=O [β-lapachone, 3,4-dihydro-2,2-dimethyl-2H-naphtho [1,2-b]pyran-5,6-dione]
CC50 (MCF-7): 1560 nM | findings ([1]; 15 mg/kg and 35 mg/kg): signs of reversible extravascular hemolysis | bilirubin ([1]; Days 2 and 23, resolved by Day 37): dose-dependent slight increase | ophthalmologic findings ([1]; dog, in vivo): no drug-related ophthalmologic findings | splenic enlargement (animals) ([1]; high-dose (35 mg/kg)): 3/8 | decreased hemoglobin ([1]; high-dose (35 mg/kg)): ~5 g/dL | mean decrease in body weight ([1]; high-dose (35 mg/kg), females): −4% | mean decrease in body weight ([1]; high-dose (35 mg/kg), males): −7% | splenic enlargement (animals) ([1]; mid-dose (15 mg/kg)): 5/8 | decreased hemoglobin ([1]; mid-dose (15 mg/kg)): ~3 g/dL | CC50 (DU-145): 1210 nM | lowest concentration tested, at which E2F-1 protein is induced (E2F-1): 0.5 µM | fraction unbound at 4 h [2]: 0.07 | amount of free compound in human plasma (human plasma proteins): approximately 7% | half-life ([3]; intravenous, elimination half-life, one-hour infusion, doses in the range 5-15 mg/kg): 4.5 to 7 h | AUC ([3]; iv, 5 mg/kg, 1-Hour Infusion): 1280 ± 118 ng·h/mL | AUC ([3]; iv, 5 mg/kg, 10-Min. Infusion): 1200 ± 313 ng·h/mL | Cmax ([3]; iv, 5 mg/kg, 1-Hour Infusion): 363 ± 21 ng/mL | Cmax ([3]; iv, 5 mg/kg, 10-Min. Infusion): 834 ± 116 ng/mL | half-life ([3]; iv, 5 mg/kg, T1/2, 1-Hour Infusion): 4.3 ± 0.6 h | half-life ([3]; iv, 5 mg/kg, T1/2, 10-Min. Infusion): 3.6 ± 0.9 h | Vd ([3]; iv, 5 mg/kg, Vdss, 1-Hour Infusion): 19.6 ± 0.8 L/kg | Vd ([3]; iv, 5 mg/kg, Vdss, 10-Min. Infusion): 20 ± 6.3 L/kg | AUC ([3]; iv, 10 mg/kg, 1-Hour Infusion): 2640 ± 1020 ng·h/mL | Cmax ([3]; iv, 10 mg/kg, 1-Hour Infusion): 707 ± 134 ng/mL | half-life ([3]; iv, 10 mg/kg, T1/2, 1-Hour Infusion): 4.9 ± 1.6 h | Vd ([3]; iv, 10 mg/kg, Vdss, 1-Hour Infusion): 21 ± 5.3 L/kg | AUC ([3]; iv, 15 mg/kg, 1-Hour Infusion): 4900 ± 54 ng·h/mL | Cmax ([3]; iv, 15 mg/kg, 1-Hour Infusion): 896 ± 130 ng/mL | half-life ([3]; iv, 15 mg/kg, T1/2, 1-Hour Infusion): 7 ± 1.6 h | Vd ([3]; iv, 15 mg/kg, Vdss, 1-Hour Infusion): 26.4 ± 5.7 L/kg | Vd ([3]; iv, volume of distribution, intravenous infusion): 20 to 26 L/kg | cytotoxicity to fresh or proliferating PBMC growth (human PBMC): No cytotoxicity | CC50 (A549 lung cancer cells): 1500 nM | CC50 (CAOV-3 [4]): 1560 nM | NOEL ([5]; Study 1A): 10 mg/kg/dose | bilirubin (slight increase) ([5]; high dose animals, Days 2 and 23, ULN 0.27 mg/dl): 0.33 mg/dL | decrease in hemoglobin ([5]; mid- and high-dose animals, normalized by Day 37): < 2 g/dL | total bilirubin ([6]; ULN 0.27): 0.46 mg/dL | blood urea nitrogen ([6]; ULN 19): 40 mg/dL | creatinine phosphokinase ([6]; ULN 513): 553 IU/L | peak plasma level [7]: approximately 8 μM | time at which peak plasma levels were achieved [7]: within one-half hour | mortality and clinical signs ([8]; 30 mg/kg dose group): No mortality or clinical signs of toxicity | creatine kinase elevation ([8]; 30 mg/kg): 2 fold upper limit of normal | creatine kinase elevation ([8]; 45 mg/kg): 4 fold upper limit of normal | reticulocyte count ([8]; high dose group (45 mg/kg), Day 15, controls 2.1%): 4.1% | fraction unbound at 10 μM [9]: ≤ 0.35 | cell death (G480 lung cancer cells; [12]): 68% | survival of cells (G480 lung cancer cells; [12]): 32% | Colonies (percent control) (G480 lung cancer cells; G480, β-lapachone 4 μM, 4 hours, average (SEM) of three experiments): 32 (0.3) percent control | CC50 (CAOV-3 [10]): 1440 nM | CC50 (SK-OV-3): 1290 nM | reduction of tidal volume ([11]; 20 mg/kg, at 60 minutes): 16% | dynamic compliance ([11]; 40 mg/kg): approximately 52 % of normal | increase of pulmonary resistance ([11]; 40 mg/kg): approximately 50% | decrease in tidal volume [11, 13]: 41% | respiratory rate [11, 13]: four-fold increase | effects on cardiovascular function (BP, blood flow, heart rate, ECG incl. QTc) ([11]; up to and including 40 mg/kg over 1 hour): no significant effects on cardiovascular function
